How the values were obtained:
Human Carboanhydrase I = Human Carboanhydrase I (Homo sapiens, UniProt P00915); experiment: Inhibition of carboanhydrase I (CO2 hydration); format: biochemical; conditions: read-out: CAI IC50
Method: Carboanhydrases catalyze the CO2 hydration.
Test preparation: A constant CO2 stream is directed by a buffer that was mixed with carboanhydrase I. The time that is required to reduce the pH within defined limits is a measuring parameter. This parameter reflects the formation of H2CO3 in the medium. IC50 inhibiting values are determined by test substances being pipetted into the test preparation.

[1] = system: angiotensinogen, total cholesterol and HDL cholesterol in serum; experiment: Hepatic effects in ovariectomized rats (estrogen-modulated factors of hepatic secretion in serum); conditions: for Angiotensin 1 ED50 (dose which produces an increase by 50% vs. OVX control) / HDL Cholesterol ED50 (dose which produces a drop by 50% vs. OVX control) / Total Cholesterol ED50 (dose which produces a drop by 50% vs. OVX control): oral, days 1-3, serum
Method: (§1) Table 1 illustrates the estrogenic activity in the case of oral administration and liver toxicity (hepatic effects) based on data of selected compounds in in-vivo tests with rats.
(§2) Adult Wistar rats are ovariectomized and are brought into the test after a 14-day waiting period. The animals are then treated for over three days (days 1-3) and then sacrificed (day 4). Then, the organ weights are determined and estrogen-modulated factors of hepatic secretion in serum are determined, which in the rat are the increase of angiotensinogen and the drop in total cholesterol and HDL cholesterol.

uterus weight = experiment: Estrogenic activity in ovariectomized rats, oral administration (uterus weight); format: in vivo, Wistar rats; conditions: for Uterus Weight UVD (Uterus Doubling Dose vs. OVX): treatment days 1-3, sacrifice day 4
Method: as §1, §2

erythrocytes = experiment: Binding to erythrocytes: displacement of 14C-estradiol sulfamate; parameters: species or system Human; conditions: for RBA to Erythrocytes: human blood, relative to estradiol-3-sulfamate = 100; for bonds to erythrocytes (in words): m-substituted compounds
Method: The SO2—NH2 group of the substances according to the invention can result in a concentration in erythrocytes by binding to carboanhydrases. The displacement of estradiol-3-sulfamate from the erythrocyte bond by test substances is measured.
Test preparation: Human blood is mixed with a mixture that consists of ^14C-labeled and unlabeled estradiol sulfamate. The erythrocytes are saturated at the selected working point, and the distribution in plasma/erythrocytes is 40:60. A second blood sample is mixed with a mixture that consists of ^14C-labeled estradiol sulfamate and unlabeled test substance. The relative binding affinity is calculated from the proportion of ^14C-labeled estradiol sulfamate in plasma: higher proportion=strong displacement of ^14C-estradiol sulfamate from the erythrocytes by the test substance=high binding affinity.

uterus and vagina weight = experiment: Interaction of estrogens with progesterone in uterus and vagina of ovariectomized guinea pigs; format: in vivo; conditions: OVX guinea pigs, 7 days s.c., with 3.0 mg progesterone per animal per day
Source text: Adult guinea pigs were ovariectomized and treated for 2 weeks after this operation over 7 days with estradiol or estriol over a large dose range. […] The effects of this treatment on the genital organs was raised on the 8th test day.

[2] = female, Wistar, rat, in vivo, 3 days
[3] = rats, oral, compared with compound 10 or compound 1

Chain of Human Carboanhydrase I (P00915 whole entry): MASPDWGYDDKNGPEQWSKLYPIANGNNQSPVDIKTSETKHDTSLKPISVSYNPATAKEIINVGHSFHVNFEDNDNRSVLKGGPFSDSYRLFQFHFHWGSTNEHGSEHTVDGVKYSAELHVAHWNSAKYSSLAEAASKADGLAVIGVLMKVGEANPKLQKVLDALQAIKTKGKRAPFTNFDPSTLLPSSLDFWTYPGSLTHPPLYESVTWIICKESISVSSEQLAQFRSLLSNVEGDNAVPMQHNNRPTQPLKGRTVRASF

| rel. hep. Akt. (relative hepatic activity vs. uterotropic activity), HDL Cholesterol ([1]; OVX rats, HDL cholesterol ED50 relative to UVD) | rel. hep. Akt. (relative hepatic activity vs. uterotropic activity), Angiotensin 1 ([1]; OVX rats, angiotensin 1 ED50 relative to UVD) | rel. hep. Akt. (relative hepatic activity vs. uterotropic activity), Total Cholesterol ([1]; OVX rats, total cholesterol ED50 relative to UVD) | Compound | IC50 (Human Carboanhydrase I) | Angiotensin 1 ED50 (dose which produces an increase by 50% vs. OVX control) ([1]; OVX rats) | HDL Cholesterol ED50 (dose which produces a drop by 50% vs. OVX control) ([1]; OVX rats) | Total Cholesterol ED50 (dose which produces a drop by 50% vs. OVX control) ([1]; OVX rats) | rel. hep. Akt. (relative hepatic activity vs. uterotropic activity), Angiotensin 1 [1, 2] | rel. hep. Akt. (relative hepatic activity vs. uterotropic activity), HDL Cholesterol [1, 2] | rel. hep. Akt. (relative hepatic activity vs. uterotropic activity), Total Cholesterol [1, 2] | Uterus Weight UVD (Uterus Doubling Dose vs. OVX) (uterus weight; OVX rats, oral) | RBA to Erythrocytes (erythrocytes) | bonds to erythrocytes (in words) (erythrocytes) | estrogenic activity in the case of oral administration (uterus weight; [3]) | oral bioavailability (uterus weight; [3]) | uterotropic actions in combination with progesterone (uterus and vagina weight; uterus) | increase in weight of the vagina in combination with progesterone (uterus and vagina weight; vagina) | increase of the uterus weight (doubling) (uterus weight; OVX rats, estriol even at very high dosages) |
| --- | --- | --- | --- | --- | --- | --- | --- | --- | --- | --- | --- | --- | --- | --- | --- | --- | --- | --- |
| – | – | – | C[C@]12CC[C@@H]3c4ccc(O)cc4CC[C@H]3[C@@H]1C[C@@H](O)[C@@H]2OC(=O)c1ccc(S(N)(=O)=O)cc1 [Compound 1, 3,16α-Dihydroxyestra-1,3,5(10)-trien-17β-yl 4′-sulfamoylbenzoate] | 200 nM | 17.4 μg/T/T | 45.9 μg/T/T | 39.9 μg/T/T | 0.12 | 0.28 | 0.25 | 162.6 μg/T/T | – | – | – | – | – | – | – |
| – | – | – | C[C@]12CC[C@@H]3c4ccc(O)cc4CC[C@H]3[C@@H]1C[C@@H](OC(=O)c1ccc(S(N)(=O)=O)cc1)[C@@H]2O [Compound 4, 3,17β-Dihydroxyestra-1,3,5(10)-trien-16α-yl 4′-sulfamoylbenzoate] | – | – | – | – | – | – | – | – | 2.6 | – | – | – | – | – | – |
| – | – | – | C[C@]12CC[C@@H]3c4ccc(O)cc4CC[C@H]3[C@@H]1C[C@@H](O)[C@@H]2OC(=O)c1cccc(S(N)(=O)=O)c1 [Compound 7, 3,16α-Dihydroxyestra-1,3,5(10)-trien-17β-yl 3′-sulfamoylbenzoate] | 600 nM | 8.9 μg/T/T | 6.0 μg/T/T | 4.8 μg/T/T | 0.06 | 0.04 | 0.03 | 137.5 μg/T/T | 0.5 | only very weak bonds were detected | higher estrogenic activity | higher | – | – | – |
| – | – | – | C[C@]12CC[C@@H]3c4ccc(O)cc4CC[C@H]3[C@@H]1C[C@@H](OC(=O)c1cccc(S(N)(=O)=O)c1)[C@@H]2O [Compound 10, 3,17β-Dihydroxyestra-1,3,5(10)-trien-16α-yl 3′-sulfamoylbenzoate] | 450 nM | 5.7 μg/T/T | 18.6 μg/T/T | 10.7 μg/T/T | 0.015 | 0.49 | 0.028 | 378.2 μg/T/T | 0.4 | only very weak bonds were detected | – | – | – | – | – |
| – | – | – | C[C@]12CC[C@@H]3c4ccc(OS(N)(=O)=O)cc4CC[C@H]3[C@@H]1CC[C@@H]2O [Estradiol-3-sulfamate, reference compound] | 157 ± 10.6 nM | – | – | – | – | – | – | – | 100 | – | – | – | – | – | – |
| <0.1 | <0.008 | <0.08 | C[C@]12CC[C@@H]3c4ccc(O)cc4CC[C@H]3[C@@H]1C[C@@H](O)[C@@H]2O [Estriol] | – | 7.6 μg/T/T | 110.7 μg/T/T | 79 μg/T/T | – | – | – | >1000 μg/T/T | – | – | – | – | clearly enhanced | not enhanced or is not enhanced to the same extent | did not bring about a doubling of the uterus weight |
